Here are results for one compound from PMC9263924, “Mycobacterium tuberculosis Methyltransferase Rv1515c Can Suppress Host Defense Mechanisms by Modulating Immune Functions Utilizing a Multipronged Mechanism” (Frontiers in Molecular Biosciences, 2022).

The target in the experiment is Rv1515c (Mycobacterium tuberculosis, UniProt P71794).

The structures appear in SMILES notation.

Chain of Rv1515c (P71794 entry or part of it): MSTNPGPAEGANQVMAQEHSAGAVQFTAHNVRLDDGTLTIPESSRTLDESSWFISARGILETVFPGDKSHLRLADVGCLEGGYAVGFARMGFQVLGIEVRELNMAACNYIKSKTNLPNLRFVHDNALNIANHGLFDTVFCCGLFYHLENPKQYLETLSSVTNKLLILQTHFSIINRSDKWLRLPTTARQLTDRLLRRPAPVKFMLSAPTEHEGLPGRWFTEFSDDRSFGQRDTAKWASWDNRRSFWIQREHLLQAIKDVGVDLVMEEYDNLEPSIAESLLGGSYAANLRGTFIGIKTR

With `C[S+](CC[C@H](N)C(=O)O)C[C@H]1O[C@@H](n2cnc3c(N)ncnc32)[C@H](O)[C@@H]1O` (stereo partly shown) [S-adenosylmethionine], the “EpiQuik DNA MTase kit, 5-methylcytosine antibody detection, absorbance 450 nm” value is on record as “ability of the Rv1515c to transfer a methyl group from Adomet to cytosine”.
